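Cultured in 96-well plates, cells were exposed to test compound for 48 hours across five concentrations. GI50 = concentration required for 50% inhibition of growth. TGI denotes the concentration required for complete inhibition of growth.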
Tests used:
Experiment in all cases: NCI anticancer screen, dose series, 48 h
IGROV1 ovarian = system: IGROV1 ovarian
KM12 colon = system: KM12 colon
SK-MEL-2 melanoma = system: SK-MEL-2 melanoma
NCI-H226 lung = system: NCI-H226 lung
SNB-75 CNS = system: SNB-75 CNS
HCT-15 colon = system: HCT-15 colon
MDA-MB-231 breast = system: MDA-MB-231 breast
MCF7 breast = system: MCF7 breast
HS 578T breast = system: HS 578T breast
DU-145 prostate = system: DU-145 prostate

| Structure (SMILES) | TGI (IGROV1 ovarian) [µM] | TGI (KM12 colon) [µM] | TGI (SK-MEL-2 melanoma) [µM] | TGI (NCI-H226 lung) [µM] | TGI (SNB-75 CNS) [µM] | TGI (HCT-15 colon) [µM] | GI50 (IGROV1 ovarian) [µM] | GI50 (MDA-MB-231 breast) [µM] | TGI (MDA-MB-231 breast) [µM] | GI50 (KM12 colon) [µM] | GI50 (SK-MEL-2 melanoma) [µM] | GI50 (MCF7 breast) [µM] | TGI (MCF7 breast) [µM] | GI50 (NCI-H226 lung) [µM] | GI50 (SNB-75 CNS) [µM] | GI50 (HS 578T breast) [µM] | TGI (HS 578T breast) [µM] | GI50 (HCT-15 colon) [µM] | GI50 (DU-145 prostate) [µM] | TGI (DU-145 prostate) [µM] |
| --- | --- | --- | --- | --- | --- | --- | --- | --- | --- | --- | --- | --- | --- | --- | --- | --- | --- | --- | --- | --- |
| COc1ccc(/C=N\N2C(=O)Cc3ccccc32)cc1 | > 100 | > 100 | > 100 | > 100 | 62 | > 100 | – | – | – | – | – | – | – | – | – | – | – | – | – | – |
| CN1CCN(c2nc(NCCNc3ccnc4cc(Cl)ccc34)c3ccccc3n2)CC1 | 7.94 | 12.1 | 4.19 | 28.7 | 4.96 | 10.8 | 2.51 | 1.37 | 3.14 | 2.43 | 1.98 | 1 | 13.9 | 10.6 | 1.84 | 2.74 | 9.58 | 3.02 | – | – |
| CC(=O)OC1CC[C@@]2(C)C(CC(OC3OC(CO)C(O)C(O)C3O)[C@]3(C)C2CCC24CC23CC[C@H]4C(C)CC(O)[C@@H](O)C(C)(C)O)C1(C)C (stereo partly drawn) | 22.1 | 19.7 | 18.8 | 48.5 | 32 | > 50 | – | – | – | – | – | – | – | – | – | – | – | – | – | – |
| COc1cc(OC)c(Oc2cccc(OC)c2OC)c(OC)c1 | > 100 | > 100 | > 100 | > 100 | > 100 | – | – | – | – | – | – | – | – | – | – | – | – | – | – | – |
| CC(=N\O)/C(C)=N/O.CC(=N\O)/C(C)=N/O.[Pd] | 9.16 | 8.01 | 8.67 | > 10 | – | 7.08 | 3.09 | 3.3 | 9.03 | 2.79 | 3.31 | 4.98 | > 10 | > 10 | – | 1.94 | > 10 | 2.44 | 6.48 | > 10 |
| COC1=C(C(=O)OC(C)(C)C)C23CCCCC2(C(C(=O)OC(C)(C)C)=C(OC)C3C(=O)OC(C)(C)C)C1C(=O)OC(C)(C)C (stereo not drawn) | > 100 | > 100 | > 100 | > 100 | > 100 | > 100 | – | – | – | – | – | – | – | – | – | – | – | – | – | – |
| Nc1ccc(Cl)cc1.Nc1ccc(Cl)cc1.Nc1ccc(Cl)cc1.O=C([O-])C(=O)[O-].O=C([O-])C(=O)[O-].[H+].[Ru+5] | > 100 | 21.9 | – | > 100 | > 100 | > 100 | > 100 | – | – | 0.124 | 0.219 | – | – | 99.4 | > 78.6 | – | – | – | – | – |
| O=C(CCCCCn1c2ccccc2c2c3c(c4c5ccccc5[nH]c4c21)C(=O)N(O)C3=O)N1CCOCC1 | 4.92 | 5.03 | 5.47 | 6.51 | – | 8.32 | 2.16 | 2.16 | 5.87 | 2.14 | 2.4 | 1.41 | > 100 | 2.58 | – | 2.78 | 7.95 | 2.67 | 3.12 | 12.2 |
| COc1ncn(C2C=C(CO)C(O)C2O)c(=O)n1 (stereo not drawn) | > 100 | > 100 | > 100 | > 100 | > 100 | > 100 | – | – | – | – | – | – | – | – | – | – | – | – | – | – |

Reference: PubChem BioAssay (NCI)
